Laboratory results from patent US8217035B2, “Pyrimidine derivatives used as PI-3-kinase inhibitors” (Novartis AG, priority 2006, dated 2012).
Like-named read-outs stand apart in the source and are kept apart here.

What was measured:
PI3 kinase alpha = PI3 kinase alpha (Homo sapiens, UniProt P42336); assay: PI3K ATP depletion assay (Biological Method 1, Assay 3; KinaseGlo luminescence); type: biochemical; settings: ATP depletion assay, read-out: PI3 Kinase Alpha, IC50
Experimental: The PI3 kinase alpha IC50 values shown in Table 1 were determined according to the ATP depletion assay as disclosed herein in Biological Method 1.
Assay 3: ATP Depletion Assay
Compounds to be tested are dissolved in DMSO and directly distributed into a black 384-well plate at 1.25 μL per well. To start the reaction, 25 μL of 10 nM PI3 kinase and 5 μg/mL 1-alpha-phosphatidylinositol (PI) are added into each well followed by 25 μL of 2 μM ATP. The reaction is performed until approx 50% of the ATP is depleted, and then stopped by the addition of 25 μL of KinaseGlo solution purchased from Promega. The stopped reaction is incubated for 5 minutes and the remaining ATP is then detected via luminescence.

[1] = test system: A2780 ovarian cancer cells; assay: Cellular proliferation in A2780 cells, Cell Titer Glo (Biological Method 4); type: cell-based; settings: Homo sapiens
Experimental: In addition, many of the compounds of Table 1 were tested to determine their inhibitory activity in a cellular proliferation assay according to Biological Method 4.
The ability of the compounds of the invention to inhibit cellular proliferation were determined by using Cell Titer Glo, a commercially available assay from Promega Corporation. A2780 ovarian cancer cells were seeded in TC treated 96-well plates at a density of 1,000 per well in DMEM, 10% FBS, 1% Sodium Pyruvate, and 1% Penicillin Streptomycin for a minimum of 2 hrs prior to addition of compound. For each concentration of test compound, 2 μl (500×) aliquots of compound or 100% DMSO diluted in 500 μl of culture medium for 2× concentration then diluted 1× on the Cells. Cells were incubated for 72 hrs at 37° C., 5% CO2. After the 72 hour incubation, Cell Titer Glo reagent is added to determine number of viable cells remaining after exposure to the compound, and the EC50 value was calculated. The assay was performed according to the manufacturer's instruction (Promega Corporation, Madison, Wis. USA). Each experimental condition was performed in duplicate.

[2] = ovarian cancer cell line A2780, Biological Method 4

Sequence of PI3 kinase alpha (P42336 whole entry): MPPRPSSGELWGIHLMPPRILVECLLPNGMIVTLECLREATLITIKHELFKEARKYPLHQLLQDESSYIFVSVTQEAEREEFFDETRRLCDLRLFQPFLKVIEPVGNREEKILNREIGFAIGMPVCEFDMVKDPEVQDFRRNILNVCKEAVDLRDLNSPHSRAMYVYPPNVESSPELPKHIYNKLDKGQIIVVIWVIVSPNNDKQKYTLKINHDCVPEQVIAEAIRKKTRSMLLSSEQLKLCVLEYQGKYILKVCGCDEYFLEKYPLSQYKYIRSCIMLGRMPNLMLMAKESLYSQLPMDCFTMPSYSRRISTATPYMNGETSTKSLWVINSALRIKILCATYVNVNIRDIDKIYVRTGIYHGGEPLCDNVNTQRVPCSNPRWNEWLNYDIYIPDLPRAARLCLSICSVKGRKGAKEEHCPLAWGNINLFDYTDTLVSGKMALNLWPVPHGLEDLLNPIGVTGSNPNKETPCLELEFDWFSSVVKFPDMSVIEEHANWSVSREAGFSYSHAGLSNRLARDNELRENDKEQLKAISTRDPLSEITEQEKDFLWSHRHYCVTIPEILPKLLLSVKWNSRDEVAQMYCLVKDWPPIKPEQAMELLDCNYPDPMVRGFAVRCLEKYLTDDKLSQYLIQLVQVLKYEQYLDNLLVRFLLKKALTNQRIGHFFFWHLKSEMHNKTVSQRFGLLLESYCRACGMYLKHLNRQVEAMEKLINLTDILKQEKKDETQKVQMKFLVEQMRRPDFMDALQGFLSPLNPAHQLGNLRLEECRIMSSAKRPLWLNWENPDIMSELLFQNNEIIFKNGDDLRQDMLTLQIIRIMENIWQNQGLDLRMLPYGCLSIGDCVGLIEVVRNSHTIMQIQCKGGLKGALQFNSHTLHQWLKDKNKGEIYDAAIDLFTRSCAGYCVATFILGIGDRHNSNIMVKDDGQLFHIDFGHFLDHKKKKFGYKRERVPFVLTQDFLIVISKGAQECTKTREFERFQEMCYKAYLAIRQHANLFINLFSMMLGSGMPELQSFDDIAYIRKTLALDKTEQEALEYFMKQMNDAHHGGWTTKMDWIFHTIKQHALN
Sequence of PI3 kinase alpha (P27986 whole entry partner): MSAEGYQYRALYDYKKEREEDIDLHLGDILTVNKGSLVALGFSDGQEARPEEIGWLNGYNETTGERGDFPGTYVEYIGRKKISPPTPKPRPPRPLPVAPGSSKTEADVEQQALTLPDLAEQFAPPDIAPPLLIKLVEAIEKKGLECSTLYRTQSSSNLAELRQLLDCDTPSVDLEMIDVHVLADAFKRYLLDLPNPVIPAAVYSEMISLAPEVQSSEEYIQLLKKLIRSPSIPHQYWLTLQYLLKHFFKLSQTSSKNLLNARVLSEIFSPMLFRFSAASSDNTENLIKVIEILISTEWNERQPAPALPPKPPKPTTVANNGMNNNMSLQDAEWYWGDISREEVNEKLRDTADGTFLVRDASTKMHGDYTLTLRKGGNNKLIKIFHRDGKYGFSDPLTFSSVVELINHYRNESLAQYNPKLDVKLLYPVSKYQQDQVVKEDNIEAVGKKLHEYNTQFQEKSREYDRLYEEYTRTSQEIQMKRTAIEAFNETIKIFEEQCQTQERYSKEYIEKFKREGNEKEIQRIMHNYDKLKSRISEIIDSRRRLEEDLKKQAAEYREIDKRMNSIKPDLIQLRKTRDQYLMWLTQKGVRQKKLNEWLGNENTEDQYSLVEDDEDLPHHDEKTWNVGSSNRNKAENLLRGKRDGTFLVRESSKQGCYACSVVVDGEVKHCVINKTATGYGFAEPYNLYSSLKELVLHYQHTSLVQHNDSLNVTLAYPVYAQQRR

SMILES | IC50 (PI3 kinase alpha) [nM] | EC50 ([1]; ovarian cancer cell line A2780) [nM] | IC50 (PI3 kinase alpha; Biological Method 1) [nM] | EC50 [1, 2] [nM]
CN(c1cc(-c2cnc(N)nc2)nc(N2CCOCC2)n1)C1CCOCC1 [Compound 6] | < 1000 | < 10000 | – | –
COCCNc1cc(-c2cnc(N)nc2)nc(N2CCOCC2)n1 [Compound 14] | < 1000 | < 1000 | – | –
CC(C)(C)Nc1cc(-c2cnc(N)nc2)nc(N2CCOCC2)n1 [Compound 16] | < 1000 | < 1000 | – | –
Nc1cc(C(F)(F)F)c(-c2cc(N3CCCCC3=O)nc(N3CCOCC3)n2)cn1 [Compound 17] | < 1000 | < 1000 | – | –
Nc1cc(C(F)(F)F)c(-c2cc(N3CCN(c4ccccc4)C3=O)nc(N3CCOCC3)n2)cn1 [Compound 18] | < 1000 | < 1000 | – | –
CC(=O)N1CCC(Oc2cc(-c3cnc(N)cc3C(F)(F)F)nc(N3CCOCC3)n2)CC1 [Compound 19] | < 1000 | < 1000 | – | –
CC(C)(C)OC(=O)N1CCC[C@H](Oc2cc(-c3cnc(N)cc3C(F)(F)F)nc(N3CCOCC3)n2)C1 [Compound 20] | < 1000 | < 1000 | – | –
CC(=O)N1CC[C@H](Oc2cc(-c3cnc(N)cc3C(F)(F)F)nc(N3CCOCC3)n2)C1 [Compound 22] | < 1000 | < 10000 | – | –
Nc1cc(C(F)(F)F)c(-c2cc(O[C@H]3CCOC3)nc(N3CCOCC3)n2)cn1 [Compound 26] | < 1000 | < 10000 | – | –
Nc1ncc(-c2cc(Nc3nccc(C(F)(F)F)n3)nc(N3CCOCC3)n2)c(C(F)(F)F)n1 [Compound 216] | – | – | < 1000 | < 10000
Nc1cc(C(F)(F)F)c(-c2cc(Oc3ccc4ncccc4c3)nc(N3CCOCC3)n2)cn1 [Compound 217] | – | – | < 1000 | < 10000
CCN(CC)C(=O)Cc1csc(Nc2cc(-c3cnc(N)cc3C(F)(F)F)nc(N3CCOCC3)n2)n1 [Compound 218] | – | – | < 1000 | < 10000
Nc1cc(Cl)c(-c2cc(Nc3ccncc3C(F)(F)F)nc(N3CCOCC3)n2)cn1 [Compound 219] | – | – | < 1000 | < 10000
Nc1cc(C(F)(F)F)c(-c2cc(N3CCOC(CN4CCCC4)C3)nc(N3CCOCC3)n2)cn1 (stereo not drawn) [Compound 220] | – | – | < 10000 | < 25000
Nc1cc(C(F)(F)F)c(-c2cc(N3CCCOCC3)nc(N3CCOCC3)n2)cn1 [Compound 221] | – | – | < 1000 | < 10000
CN(C)CCOc1ccc(-c2cc(-c3cnc(N)nc3)nc(N3CCOCC3)n2)cn1 [Compound 223] | – | – | < 1000 | < 10000
Nc1ccc(-c2cc(Nc3ccc4cn[nH]c4c3)nc(N3CCOCC3)n2)cn1 [Compound 227] | – | – | < 1000 | < 10000
Nc1ncc(-c2cc(C(=O)Nc3ccncc3)nc(N3CCOCC3)n2)cn1 [Compound 230] | – | – | < 1000 | < 10000
Nc1ncc(-c2cc(C(=O)Nc3cccnc3)nc(N3CCOCC3)n2)cn1 [Compound 231] | – | – | < 1000 | < 10000
CNC(=O)c1cc(-c2cnc(N)nc2)nc(N2CCOCC2)n1 [Compound 232] | – | – | < 1000 | < 25000
Nc1ncc(-c2cc(C(=O)N3CCNCC3)nc(N3CCOCC3)n2)cn1 [Compound 233] | – | – | < 1000 | < 10000

SMILES | IC50 (PI3 kinase alpha) [nM] | EC50 ([1]; ovarian cancer cell line A2780) [nM] | IC50 (PI3 kinase alpha; Biological Method 1) [nM] | EC50 [1, 2] [nM]
Nc1ncc(-c2cc(C(=O)N3CCCCC3)nc(N3CCOCC3)n2)cn1 [Compound 234] | – | – | < 1000 | < 25000
CN1CCN(C(=O)c2cc(-c3cnc(N)nc3)nc(N3CCOCC3)n2)CC1 [Compound 235] | – | – | < 1000 | < 10000
N#Cc1cc(-c2cnc(N)nc2)nc(N2CCOCC2)n1 [Compound 237] | – | – | < 1000 | < 10000
CS(=O)(=O)c1cccc(Nc2cc(-c3cnc(N)cc3C(F)(F)F)nc(N3CCOCC3)n2)c1 [Compound 238] | – | – | < 1000 | < 10000
N#Cc1ccnc(Nc2cc(-c3cnc(N)cc3C(F)(F)F)nc(N3CCOCC3)n2)c1 [Compound 239] | – | – | < 1000 | < 10000
Nc1cc(C(F)(F)F)c(-c2cc(Nc3cc(Cl)ccn3)nc(N3CCOCC3)n2)cn1 [Compound 241] | – | – | < 1000 | < 10000
NC(=O)c1ccnc(Nc2cc(-c3cnc(N)cc3C(F)(F)F)nc(N3CCOCC3)n2)c1 [Compound 242] | – | – | < 1000 | < 10000
Nc1ccc(-c2cc(-c3ccc(N)nc3)nc(N3CCOCC3)n2)cn1 [Compound 245] | – | – | < 1000 | < 10000
Nc1ccc(-c2cc(-c3ccncc3)nc(N3CCOCC3)n2)cn1 [Compound 246] | – | – | < 1000 | < 10000
Cn1cc(-c2cc(-c3ccc(N)nc3)nc(N3CCOCC3)n2)cn1 [Compound 247] | – | – | < 1000 | < 10000
Nc1ccc(-c2cc(-c3cn[nH]c3)nc(N3CCOCC3)n2)cn1 [Compound 248] | – | – | < 1000 | < 10000
CS(=O)(=O)Nc1cccc(-c2cc(-c3ccc(N)nc3)nc(N3CCOCC3)n2)c1 [Compound 249] | – | – | < 1000 | < 10000
CC(=O)Nc1cccc(-c2cc(-c3ccc(N)nc3)nc(N3CCOCC3)n2)c1 [Compound 250] | – | – | < 1000 | < 10000
NC(=O)c1cccc(-c2cc(-c3ccc(N)nc3)nc(N3CCOCC3)n2)c1 [Compound 251] | – | – | < 1000 | < 10000
CC(=O)c1cccc(-c2cc(-c3ccc(N)nc3)nc(N3CCOCC3)n2)c1 [Compound 252] | – | – | < 1000 | < 10000
CC(=O)Nc1ccccc1-c1cc(-c2ccc(N)nc2)nc(N2CCOCC2)n1 [Compound 253] | – | – | < 1000 | < 10000
NC(=O)c1ccccc1-c1cc(-c2ccc(N)nc2)nc(N2CCOCC2)n1 [Compound 254] | – | – | < 1000 | < 25000
CC(=O)c1ccccc1-c1cc(-c2ccc(N)nc2)nc(N2CCOCC2)n1 [Compound 255] | – | – | < 1000 | < 25000
Nc1ncc(-c2nc(N3CCOCC3)ncc2N)cn1 [Compound 258] | – | – | < 1000 | < 25000
Nc1ccc(-c2nc(N3CCOCC3)ncc2N)cn1 [Compound 259] | – | – | < 10000 | < 25000
CS(=O)(=O)Nc1ncccc1-c1cc(-c2cnc(N)nc2N)nc(N2CCOCC2)n1 [Compound 260] | – | – | < 1000 | < 10000

SMILES | IC50 (PI3 kinase alpha) [nM] | EC50 ([1]; ovarian cancer cell line A2780) [nM] | IC50 (PI3 kinase alpha; Biological Method 1) [nM] | EC50 [1, 2] [nM]
CC(=O)N1CCC(Oc2ccc(Nc3cc(-c4cnc(N)nc4N)nc(N4CCOCC4)n3)cn2)CC1 [Compound 261] | – | – | < 1000 | < 10000
Nc1ncc(-c2cc(Nc3cnc4ccccc4c3)nc(N3CCOCC3)n2)c(=O)[nH]1 [Compound 470] | – | < 10000 | – | –
CC(C)N1CCN(c2nc3ccccc3cc2-c2cc(-c3ccc(N)nc3)nc(N3CCOCC3)n2)CC1 [Compound 502] | < 10000 | – | – | –
CN(C)c1ncccc1-c1cc(-c2ccc(N)nc2)nc(N2CCOCC2)n1 [Compound 504] | < 10000 | – | – | –
Nc1ccc(-c2cc(-c3ccc(NCCN4CCCC4)nc3)nc(N3CCOCC3)n2)cn1 [Compound 506] | < 1000 | – | – | –
CC(C)N1CCN(c2ccc(-c3cc(-c4ccc(N)nc4)nc(N4CCOCC4)n3)cn2)CC1 [Compound 507] | < 1000 | – | – | –
CS(=O)(=O)Nc1cc(-c2ccc(N)nc2)nc(N2CCOCC2)n1 [Compound 510] | < 10000 | – | – | –
Nc1ccc(-c2ccnc(N3CCOCC3)n2)cn1 [Compound 513] | < 1000 | – | – | –
CN(C)CCCCNc1cc(-c2cnc(N)nc2)nc(N2CCOCC2)n1 [Compound 517] | < 10000 | – | – | –
Nc1ncc(-c2cc(N[C@H]3CN4CCC3CC4)nc(N3CCOCC3)n2)cn1 [Compound 519] | < 1000 | – | – | –
Nc1ncc(-c2cc(O[C@@H]3CCCN(C(=O)c4ccc(F)cc4)C3)nc(N3CCOCC3)n2)c(N)n1 [Compound 525] | < 1000 | – | – | –
CC(C)C(=O)N1CC[C@H](Oc2cc(-c3cnc(N)cc3C(F)(F)F)nc(N3CCOCC3)n2)C1 [Compound 533] | < 10000 | – | – | –
Nc1cc(C(F)(F)F)c(-c2cc(O[C@@H]3CCN(C(=O)OCc4ccccc4)C3)nc(N3CCOCC3)n2)cn1 [Compound 535] | < 1000 | – | – | –
Nc1cc(C(F)(F)F)c(-c2cc(O[C@@H]3CCN(C(=O)c4ccccc4)C3)nc(N3CCOCC3)n2)cn1 [Compound 536] | < 1000 | – | – | –
CC(C)C(=O)N1CC[C@@H](Oc2cc(-c3cnc(N)cc3C(F)(F)F)nc(N3CCOCC3)n2)C1 [Compound 537] | < 1000 | – | – | –
CC(C)OC(=O)N1CC[C@@H](Oc2cc(-c3cnc(N)cc3C(F)(F)F)nc(N3CCOCC3)n2)C1 [Compound 538] | < 1000 | – | – | –
Nc1cc(C(F)(F)F)c(-c2cc(CNC(=O)OC3CCOC3)nc(N3CCOCC3)n2)cn1 (stereo not drawn) [Compound 542] | < 1000 | – | – | –
N#Cc1cnc(Nc2cc(-c3cnc(N)nc3C(F)(F)F)nc(N3CCOCC3)n2)s1 [Compound 545] | – | < 25000 | – | –
Cc1c(-c2cnc(N)nc2)nc(N2CCOCC2)nc1-c1ccccc1S(=O)(=O)NC(C)(C)C [Compound 547] | < 10000 | – | – | –
Nc1ccc(-c2cc(N3CCOCC3)nc(N3CCOCC3)n2)c(F)n1 [Compound 550] | – | < 10000 | – | –
